Measurements: article PMC4640567, “Cinnamic Acid Bornyl Ester Derivatives from Valeriana wallichii Exhibit Antileishmanial In Vivo Activity in Leishmania major-Infected BALB/c Mice” (PLoS ONE, 2015)
“And” between values parts separate entries of the source, which are not always exact repeats. Identical values can stand only once.

Experiments:
L. major promastigotes [1] = experiment: Transmission electron microscopy, mitochondrial swelling; format: cell-based, Leishmania major; conditions: 100 μM, 2 h
Procedure: (§1) L. major parasites harvested from blood agar cultures were washed twice with Dulbecco’s phosphate-buffered saline (DPBS; Invitrogen, Darmstadt, Germany) and centrifuged at 3.000 × g for 10 min. The pellet was suspended in RPMI 1640 medium at a final concentration of 1 × 10^8 cells/ml. Cells were treated with 1% DMSO, 122.7 μM miltefosine (1-hexadecylphorylcholine; apoptosis inducer), or 100 μM of the tested compounds 1 and 2 in a final volume of 200 μl in 96 well plates. Samples were incubated at 27°C in 5% CO2 for several time points between 30 min and 24 h. Transmitted light microscopic, transmission electron microscopic (TEM), and flow cytometric techniques were used to find phenotypic patterns caused by the treatment with the tested compounds.
L. major promastigotes were incubated for 2 h in the presence of DMSO, 100 μM of compound 1 and compound 2, respectively. After the incubation period, the parasites were harvested, contrasted and embedded following the procedure described previously. Ultrathin sections were mounted on 300-mesh grids, stained with uranyl acetate and lead citrate, and analyzed with an EM 10 transmission electron microscope (Carl Zeiss AG, Oberkochen, Germany). To describe morphological changes in a statistical manner, six photographs with approximately 50 cells were taken and the percentage of cells with swollen mitochondria per treatment was determined.

L. major amastigotes = experiment: microbe, parasite or virus in culture; format: cell-based; conditions: Leishmania major; intracellular amastigotes in BMDM, 24 h; read-out: Cytotoxicity (μM) L. major amastigotes (IC50)
Procedure: Luciferase-transgenic (Luc-tg) L. major has been generated as described previously. The virulence of Luc-tg L. major was maintained by passage in female BALB/c mice and promastigotes were grown in vitro in blood agar cultures with addition of 50 μg/mL hygromycin B using the same conditions as described above.
A detailed protocol of antileishmanial investigations against intracellular L. major amastigotes residing within bone marrow-derived macrophages (BMDM) is described elsewhere. Briefly, 2 × 10^5/ml BMDM were infected with Luc-tg L. major promastigotes at a ratio of 1:15 for 24 h. These infected BMDM were cultured in the absence or presence of increasing concentrations of the tested compounds 1 and 2 for 24 h prior to the supplement of Britelite plus (PerkinElmer, Waltham, MA, USA) for 5 min. Britelite plus is a very sensitive assay for the quantification of firefly luciferase in Leishmania parasites. The luminescence was measured using a Victor X Light 2030 luminometer (PerkinElmer, Waltham, MA, USA).

[2] = AlamarBlue cytotoxicity, BMDM; format: cell-based; conditions: bone marrow-derived macrophages (BMDM)
Procedure: (§2) BMDM were generated in complete RPMI medium as described previously. On day six, the cytotoxicity against 2 × 10^5 cells/ml was tested at increasing concentrations of compounds 1 and 2 for 48 h. Human embryonic kidney HEK 293 T cells (ATCC, Wesel, Germany) were cultured in Dulbecco´s Modified Eagle Medium (DMEM) (Life Technologies, Darmstadt, Germany), with 10% FCS (PAA Laboratories, Germany). According to the standard operating procedures (SOP) within the Collaborative Research Center 630 (SFB 630) 2 × 10^4 HEK 293 T cells/ml were tested at increasing concentrations of compounds 1 and 2 for 48 h. Human liver carcinoma HepG2 cells (ATCC) were cultured in RPMI medium (Gibco) with 10% FCS. 1 × 10^5 cells/ml HepG2 were tested at increasing concentrations of 1 and 2 for 72 h according to the SOPs. The AlamarBlue assay was performed as described above for L. major parasites.

L. major promastigotes [3] = experiment: Diff-Quik staining and transmitted light microscopy, cell morphology; format: cell-based, Leishmania major; conditions: 100 μM
Procedure: as §1
After incubation for 30 min, 1 h, 2 h, 4 h, and 24 h in the presence of the tested compounds 1 and 2, promastigotes were harvested and centrifuged in a Cytospin 3 centrifuge (Shandon, Frankfurt, Germany) on microscope slides at 253 × g for 5 min at room temperature (RT). Cytospin preparations of cells were stained using the Differential Quick Stain (Diff-Quik) dye (Medion Diagnostics AG, Duedingen, Switzerland), according to the manufacturers’ protocol with some modifications. Diff-Quik stains the leishmanial nuclei and the kinetoplasts dark purple and the cytoplasm light purple allowing the observation of phenotypic changes within the parasite. Briefly, air-dried cells were fixed by dipping the slides 5 times for 3 seconds in fixative solution. Subsequently the slides were stained with Solution I following Solution II (from Diff-Quik kit) and air-dried between each staining steps. Finally, the samples were rapidly dipped once in ultra-pure water (produced by a TKA purification system apparatus, Niederelbert, Germany) to remove excessive staining solutions. The air-dried cells were analyzed by transmitted light microscopy under a 50× objective on a Nikon ECLIPSE 50i microscope equipped with a digital camera (Nikon, Tokyo, Japan). The images were processed using NIS Elements D software (Nikon).

L. donovani = experiment: Preliminary studies in L. donovani infected BALB/c mice; format: in vivo; conditions: need further evaluation
L. major promastigotes [4] = experiment: Annexin V / propidium iodide flow cytometry, cell death phenotype; format: cell-based, Leishmania major; conditions: 100 μM
Procedure: as §1
The loss of membrane integrity and translocation of phosphatidylserine (PS) to the outside of the cellular membrane can be determined by annexin V (AV) and propidium iodide (PI) staining. Double staining with AV-fluorescein isothiocyanate (FITC) and PI during flow cytometry analysis leads to discrimination between four populations: double negatives or alive cells (AV^-/PI^-), double positive or late necrotic/late apoptotic cells (AV^+/PI^+), PI-positive and AV-negative or early necrotic cells (AV^-/PI^+), and PI-negative and AV-positive or early apoptotic cells (AV^+/PI^-).
Parasites were harvested after incubation for 6 h, 10 h, and 24 h in the presence of compounds 1, 2 and miltefosine (Cayman Chemical Company, MI, USA), respectively, the latter serving as positive control for the induction of apoptotic cell death. DMSO was used as solvent control. Cell staining was performed using an AV-FITC Apoptosis detection kit (Sigma-Aldrich, Saint Louis, MO, USA). Cells were harvested, washed and suspended in 500 μL of binding buffer, 5 μL of AV-FITC and 10 μl of PI. The cells were incubated for 10 min in the dark at RT. Finally, stained samples were immediately analyzed by flow cytometry using MACSQuant analyzer or a flow cytometer (Becton Dickinson, San José, CA, USA).

[5] = AlamarBlue cytotoxicity, HEK 293 T cells; format: cell-based; conditions: human
Procedure: as §2

Structure (SMILES)	Counted parasites with mitochondrial swelling (TEM) (L. major promastigotes [1])	IC50 (L. major amastigotes)	IC50 at 48 h [2]	Time after which vacuolization and changes in cell morphology were observable (L. major promastigotes [3])	Antileishmanial in vivo activity (L. donovani)	LL: live cells (AV-/PI-) (L. major promastigotes [4]; 6 h)	LR: early apoptotic cells (AV+/PI-) (L. major promastigotes [4]; 6 h)	UL: early necrotic cells (AV-/PI+) (L. major promastigotes [4]; 6 h)	UR: necrotic/late apoptotic cells (AV+/PI+) (L. major promastigotes [4]; 6 h)	LL: live cells (AV-/PI-) (L. major promastigotes [4]; 10 h)	LR: early apoptotic cells (AV+/PI-) (L. major promastigotes [4]; 10 h)	UL: early necrotic cells (AV-/PI+) (L. major promastigotes [4]; 10 h)	UR: necrotic/late apoptotic cells (AV+/PI+) (L. major promastigotes [4]; 10 h)	Induced cell death phenotype (per definition) (L. major promastigotes [4]; 24 h)	LL: live cells (AV-/PI-) (L. major promastigotes [4]; 24 h)	LR: early apoptotic cells (AV+/PI-) (L. major promastigotes [4]; 24 h)	UL: early necrotic cells (AV-/PI+) (L. major promastigotes [4]; 24 h)	UR: necrotic/late apoptotic cells (AV+/PI+) (L. major promastigotes [4]; 24 h)	IC50 at 48 h [5]
CC1(C)C2CCC1(C)C(OC(=O)C=Cc1ccccc1)C2 (single isomer, unassigned; (-)) [Compound 1, (-)-Bornyl cinnamate]	39%	10.9 µM	54.3 µM	30 min	promising antileishmanial in vivo activities	71.3%	3.7%	12.3%	12.7%	69.3%	4.2%	12.9%	13.6%	necrotic cell death phenotype	33% and 33.2%	4.1%	30% and 29.8%	33% and 32.9%	83.1 µM
CC1(C)C2CCC1(C)C(OC(=O)CCc1ccccc1)C2 (single isomer, unassigned; (-)) [Compound 2, (-)-bornyl 3-phenylpropionate]	36%	89.1 µM	> 100 µM	1 h	promising antileishmanial in vivo activities	54.4%	8.8%	10.7%	26.1%	47.2%	9.3%	16.8%	26.7%	miltefosine-like cell death	21% and 20.6%	19% and 18.5%	24% and 24.2%	37% and 36.7%	> 100 µM
